Laboratory results published in PubChem BioAssay (NCI).
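1) Cells in 96-well plates. 2) Compound, 48 h, 5 concentrations. 3) Linear interpolation between surrounding doses. 4) Unreached endpoint = highest concentration. Definition used: TGI = concentration required for complete inhibition of growth.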

Experiments:
Assay in all cases: DTP human tumour cell line panel, 48 h
786-0 renal = tested on: 786-0 renal
LOX IMVI melanoma = tested on: LOX IMVI melanoma
EKVX NSCLC = tested on: EKVX NSCLC
SF-268 CNS = tested on: SF-268 CNS
HOP-62 NSCLC = tested on: HOP-62 NSCLC
UACC-62 melanoma = tested on: UACC-62 melanoma
HCT-15 colon = tested on: HCT-15 colon
UACC-257 melanoma = tested on: UACC-257 melanoma
IGROV1 ovarian = tested on: IGROV1 ovarian
NCI-H522 lung = tested on: NCI-H522 lung
OVCAR-8 ovarian = tested on: OVCAR-8 ovarian
HCT-116 colon = tested on: HCT-116 colon
MALME-3M melanoma = tested on: MALME-3M melanoma
U251 CNS = tested on: U251 CNS
SF-539 CNS = tested on: SF-539 CNS
MDA-MB-231 breast = tested on: MDA-MB-231 breast
NCI/ADR-RES ovarian = tested on: NCI/ADR-RES ovarian
T-47D breast = tested on: T-47D breast
MCF7 breast = tested on: MCF7 breast

SMILES | TGI (786-0 renal) [µM] | TGI (LOX IMVI melanoma) [µM] | TGI (EKVX NSCLC) [µM] | TGI (SF-268 CNS) [µM] | TGI (HOP-62 NSCLC) [µM] | TGI (UACC-62 melanoma) [µM] | TGI (HCT-15 colon) [µM] | TGI (UACC-257 melanoma) [µM] | TGI (IGROV1 ovarian) [µM] | TGI (NCI-H522 lung) [µM] | TGI (OVCAR-8 ovarian) [µM] | TGI (HCT-116 colon) [µM] | TGI (MALME-3M melanoma) [µM] | TGI (U251 CNS) [µM] | TGI (SF-539 CNS) [µM] | TGI (MDA-MB-231 breast) [µM] | TGI (NCI/ADR-RES ovarian) [µM] | TGI (T-47D breast) [µM] | TGI (MCF7 breast) [µM]
CCCOC(=O)C1CCC(=O)N1C(=O)C(C)Cl (stereo not given) | > 100 | > 100 | > 100 | > 100 | > 100 | > 100 | > 100 | > 100 | > 100 | > 100 | > 100 | > 100 | > 100 | > 100 | – | – | – | – | –
C#CCNC(=O)NCCCC(NC(C)=O)C(=O)NCc1ccccc1 (stereo not given) | > 100 | > 100 | > 100 | > 100 | > 100 | > 100 | > 100 | > 100 | > 100 | > 100 | > 100 | > 100 | > 100 | > 100 | > 100 | – | – | – | –
Nc1ccc2nc(NCc3ccc(F)cc3)cnc2c1 | > 100 | > 100 | > 100 | > 100 | > 100 | > 100 | > 100 | – | > 100 | > 100 | > 100 | > 100 | > 100 | > 100 | > 100 | – | – | – | –
CC(=O)O[C@]12CCCCC1C1(O)C(O)CCCCC12 (stereo not given in full) | > 100 | > 100 | > 100 | > 100 | > 100 | > 100 | > 100 | > 100 | – | > 100 | > 100 | > 100 | > 100 | > 100 | – | – | – | – | –
COc1ccccc1/C=C(\C#N)C(=O)c1ccccc1 | > 100 | > 100 | > 100 | > 100 | > 100 | > 100 | > 100 | > 100 | > 100 | > 100 | > 100 | > 100 | > 100 | > 100 | > 100 | – | – | – | –
CC(C)CC[C@H](O)[C@@H](C)[C@H]1[C@@H](OC2OC(C)C(O)C(O)C2O)C[C@H]2[C@@H]3CC=C4C[C@@H](O)CC[C@]4(C)[C@H]3[C@@H](O)C[C@]12C (stereo not given in full) | > 100 | > 100 | > 100 | > 100 | > 68.7 | 3.21 | > 100 | 2.91 | 40.4 | > 100 | > 100 | > 100 | > 68.9 | > 100 | 0.578 | > 100 | > 100 | > 100 | –
CCOCN1COCN=C1NC#N | > 100 | – | > 100 | > 100 | > 100 | > 100 | > 100 | > 100 | > 100 | > 100 | > 100 | > 100 | > 100 | > 100 | > 100 | – | – | – | –
NC(=O)C#CC#CC#CCO | 2.93 | 3.83 | – | – | 23.1 | 4.32 | 3.5 | 5.87 | 7.4 | 0.301 | 3.42 | 2.59 | 3.72 | 3.72 | – | – | – | – | –
CC1OC(n2ccc(=O)[nH]c2=O)C=C(OC(=O)c2ccccc2)C1=O (stereo not given) | > 100 | > 100 | > 100 | – | > 100 | > 100 | > 100 | > 100 | > 100 | – | > 100 | – | > 100 | 81.3 | > 100 | – | – | – | –
Cc1ccccc1C1OC(=O)c2ccccc21 (stereo not given) | > 100 | > 100 | > 100 | > 100 | > 100 | > 100 | > 100 | – | > 100 | > 100 | > 100 | > 100 | > 100 | > 100 | > 100 | – | – | – | –
NC(=O)c1cccc(C2OC(COP(=O)(O)O)C(O)C2O)c1 (stereo not given) | > 50 | > 50 | > 50 | > 50 | > 50 | > 50 | > 50 | > 50 | > 50 | > 50 | > 50 | > 50 | > 50 | > 50 | > 50 | – | – | – | –
CCOc1ccc(NC(=O)C(=O)NO)cc1 | > 100 | > 100 | > 100 | > 100 | > 100 | > 100 | > 100 | > 100 | > 100 | > 100 | > 100 | > 100 | > 100 | > 100 | > 100 | – | – | – | –
O=C1[C@@H]2C(c3ccc(Cl)cc3Cl)=NO[C@@H]2C(=O)N1c1ccc(Cc2ccc(N3C(=O)[C@H]4C(c5ccc(Cl)cc5Cl)=NO[C@H]4C3=O)cc2)cc1 | > 100 | > 100 | > 100 | > 100 | > 100 | > 100 | > 100 | > 100 | > 100 | – | > 100 | – | > 100 | – | > 100 | – | – | – | –
Cn1c2c(c3ccccc31)CCN(CCN1CCN(c3ccccc3)CC1)C2=O | > 100 | > 100 | > 100 | > 100 | – | > 100 | > 100 | – | > 100 | 92.9 | > 100 | > 100 | – | > 100 | > 100 | – | – | – | –
N#CCCN(c1ccc(/C=C2\N=C(Cc3ccccc3)OC2=O)cc1)S(=O)(=O)c1ccccc1 | > 100 | > 100 | > 100 | > 100 | > 100 | > 100 | > 100 | > 100 | > 100 | > 100 | > 100 | > 100 | > 100 | > 100 | > 100 | – | – | – | –
N#Cc1c2c(c(Nc3cccc(C(F)(F)F)c3)n3c1nc1ccccc13)CCC2 | > 100 | > 100 | > 100 | > 100 | > 100 | – | > 100 | > 100 | – | > 100 | > 100 | > 100 | > 100 | > 100 | > 100 | > 100 | > 100 | > 100 | –
N#CC(C(=O)/C(=N/NC(=O)c1ccccc1O)C(C#N)c1ccccc1)c1ccccc1 (stereo not given) | > 100 | > 100 | > 100 | > 100 | > 100 | > 100 | > 100 | > 100 | > 100 | – | > 100 | > 100 | > 100 | > 100 | > 100 | – | – | – | –
COc1ccc(/C(Cl)=C(/c2ccc(O)cc2)c2ccc(OCCN(C)C)cc2)cc1 | 18.8 | 12.6 | 30.3 | 24.7 | 26.7 | 32.9 | 23.3 | 9.09 | 33.2 | 25.1 | 28.9 | – | 14.4 | 23.3 | 23.8 | – | – | – | –
Cc1ccc(O)c(C(c2ccc([N+](=O)[O-])cc2)c2cc(C)ccc2O)c1 | 44.5 | 55.6 | 34.3 | 22 | 23.1 | 21.7 | 23.8 | 28.4 | 25.2 | 28.6 | 30.7 | 40.6 | – | 48.8 | 32.1 | 26.2 | 28.7 | 34.7 | 20.3
C=[N+](CNC(=O)CNC(=O)C(Cc1ccc([N+](=O)[O-])cc1)NC(=O)OC(C)(C)C)C(=O)CNC(=O)C(Cc1ccc([N+](=O)[O-])cc1)NC(=O)OC(C)(C)C (stereo not given) | > 100 | 33.4 | > 100 | 61.8 | > 100 | 50.1 | > 100 | – | > 100 | 79.8 | > 100 | > 100 | > 100 | > 100 | 57.9 | 59 | > 100 | – | > 100
CN(C)CCC(O)(c1ccccc1)C(O)(CCN(C)C)c1ccccc1 (stereo not given) | > 100 | – | > 100 | > 100 | > 100 | > 100 | > 100 | 56.7 | > 100 | > 100 | > 100 | – | 32.6 | > 100 | – | – | – | – | –
Cc1ccc(N=NC2S/C(=C(\C#N)c3nc4ccccc4[nH]3)N(c3ccccc3)C2=O)cc1 (stereo not given) | 71.9 | > 100 | > 100 | > 100 | 81.1 | > 100 | > 100 | > 100 | > 100 | > 100 | > 100 | > 100 | > 100 | > 100 | > 100 | – | – | – | –
COc1ccc(NC(=O)CC(=O)N2N=C(N(CCC#N)c3ccccc3Cl)CC2c2ccccc2)cc1 (stereo not given) | > 100 | > 100 | > 100 | > 100 | > 100 | > 100 | > 100 | > 100 | > 100 | > 100 | > 100 | > 100 | > 100 | > 100 | > 100 | – | – | – | –
O=C(CC(=O)Nc1cccc(Cl)c1)NNCC(=O)Nc1nnc(-c2ccccc2)s1 | 84.3 | > 100 | > 100 | > 100 | > 100 | > 100 | > 100 | > 100 | > 100 | > 100 | > 100 | > 100 | – | > 100 | > 100 | – | – | – | –
